Assay results published in patent US20260060969A1, “METHODS FOR THE TREATMENT OF LYMPHOPROLIFERATIVE DISORDERS” (INSTITUT NATIONAL DE LA SANTÉ ET DE LA RECHERCHE MÉDICALE, priority 2022, published 2026).

Tests used:
[1] = system: MRL/MpJ-Faslpr/J mice (MRL-lpr); assay: Alpelisib in MRL/MpJ-Faslpr/J (MRL-lpr) mice, model of lymphoproliferative disorder (spleen and lymph node size, flow cytometry); assay type: in vivo, mouse; conditions: 4 weeks
Source text: (§1) They then decided to explore the relevance of alpelisib in MRL/MpJ-Faslpr/J mice (referred here as MRL-lpr), another mouse model of lymphoproliferative disorder. These mice with homozygous Fas mutation usually develop severe lymphadenoproliferation. Female mice die at an average of 18-20 weeks old. They first randomly assigned to either vehicle or alpelisib MRL-lpr female mice at 8 weeks old, before they fully develop diseases.
(§2) FIG. 1: Alpelisib improves lymphoproliferative mouse models. A. Spleen to body weight ratio at the time of sacrifice (4 weeks following treatment either with vehicle or alpelisib) (n=5-15 mice per group). B-F. Percentage of spleen cell population determined by flow cytometry analysis in NZBWF1/J mice treated with either vehicle or alpelisib. Spleen to body weight ratio of MRL-lpr mice treated either with vehicle or alpelisib for 4 weeks (n=14 mice per group). Percentage of peripheral blood monuclear cell (PBMC), bone marrow, spleen and lymph nodes cell population determined by flow cytometry analysis in MRL-lpr mice treated with either vehicle or alpelisib for 4 weeks (n=8-9 mice per group). CD4, CD8, B220, Mac1, Gr1 are used as lineage markers.
FIG. 2: Alpelisib modifies mononuclear cell population in MRL-lpr mice. Flow cytometry analysis of bone marrow, spleen, lymph nodes, and PBMC in MRL-lpr mice treated either with vehicle or alpelisib for 4 weeks (n=8-9 mice per group). CD4, CD8, B220, Mac1, Gr1 are used as lineage markers.
as §1, with “We” for “They”

[2] = system: NZBWF1/J mice; assay: Alpelisib in NZBWF1/J mice, model of lymphoproliferative disorders (spleen size, splenocyte flow cytometry); assay type: in vivo, mouse; conditions: female NZBWF1/J mice aged 24 weeks, 4 weeks treatment, vs vehicle
Method: (§3) Inventors have first investigated the impact of PIK3CA inhibition in NZBWF1/J mice a model of lymphoproliferative disorders. They randomly assigned 30 females aged of 24 weeks to receive either vehicle (n=15) or alpelisib (n=15) during 4 weeks. At the end of the treatment period, mice were sacrificed and flow cytometry was performed in splenocytes.
as §2
as §3, with “We” for “Inventors have”, “We” for “They”

[3] = system: PROS patients; conditions: PROS patients in poor condition; earlier work told in the background; cited from earlier work
[4] = MRL-lpr mice, PBMC, lymph nodes and spleen
[5] = female MRL-lpr mice treated from 8 weeks old, at sacrifice, vs vehicle

In the case of `Cc1nc(NC(=O)N2CCC[C@H]2C(N)=O)sc1-c1ccnc(C(C)(C)C(F)(F)F)c1` [alpelisib], the “B cells (flow cytometry)” value [1, 4] was “correction”, the “T cells (flow cytometry)” value [1, 4] was “correction” and the “other immune cells (flow cytometry)” value [1, 4] was “correction”. For the same compound, the lymph node size [1, 5] was “reduction”, the spleen size [1, 5] was “reduction” and the “spleen size (spleen to body weight ratio, FIG. 1A)” value ([2]; at sacrifice) was “significantly reduced”. The “B cells (flow cytometry in splenocytes)” value ([2]; spleen) was “significantly reduced”, the “CD8 cells count (flow cytometry in splenocytes)” value ([2]; spleen) was “corrected” and the “clinical, biological and radiological outcome” value [3] was “clinical, biological and radiological improvements”.
